Biological target: T1, folate receptors (FRs) on KB cells (Homo sapiens, UniProt P15328)
T1 construct: FR-positive KB cells were heavily seeded into 24-well cell culture plates; endogenous in cells; host or cells: KB cells
Experiment: Relative Affinity Assay (displacement of 3H-folic acid)
Assay type: binding
Settings: 10% serum/FDRPMI; folic acid set to 1
Protocol: METHOD: Relative Affinity Assay. The affinity for folate receptors (FRs) relative to folate was determined according to a previously described method (Westerhof, G. R., J. H. Schornagel, et al. (1995) Mol. Pharm. 48: 459-471) with slight modification. Briefly, FR-positive KB cells were heavily seeded into 24-well cell culture plates and allowed to adhere to the plastic for 18 h. Spent incubation media was replaced in designated wells with folate-free RPMI (FFRPMI) supplemented with 100 nM ^3H-folic acid in the absence and presence of increasing concentrations of test article or folic acid. Cells were incubated for 60 min at 37° C. and then rinsed 3 times with PBS, pH 7.4. Five hundred microliters of 1% SDS in PBS, pH 7.4, were added per well. Cell lysates were then collected and added to individual vials containing 5 mL of scintillation cocktail, and then counted for radioactivity. Negative control tubes contained only the ^3H-folic acid in FFRPMI (no competitor). Positive control tubes contained a final concentration of 1 mM folic acid, and CPMs measured in these samples (representing non-specific binding of label) were subtracted from all samples.

T1 sequence (P15328 25-234): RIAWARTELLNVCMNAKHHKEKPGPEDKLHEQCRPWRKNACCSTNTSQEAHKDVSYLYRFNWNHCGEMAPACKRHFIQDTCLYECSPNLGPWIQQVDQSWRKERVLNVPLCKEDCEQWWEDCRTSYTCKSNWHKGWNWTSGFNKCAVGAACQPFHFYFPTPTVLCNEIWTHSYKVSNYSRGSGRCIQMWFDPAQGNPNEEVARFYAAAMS

## Nc1nc2ncc(CNc3ccc(C(=O)N[C@@H](CCC(=O)O)C(=O)O)cc3)nc2c(=O)[nH]1 [folic acid]
  relative affinity: 1
